From article PMC9000610, “Computational Analysis and Biological Activities of Oxyresveratrol Analogues, the Putative Cyclooxygenase-2 Inhibitors” (Molecules, 2022)

Experiments:
in vitro = assay type: cell-based, human; conditions: human
Protocol: (§1) The effect of oxyresveratrol and its derivatives on the viability of normal human fibroblasts (MRC-5 cells) were determined by MTT assay. MRC-5 cells were diluted to 2 × 10^5 cells/mL with a complete medium. The cells (100 µL) were seeded in the wells of the sterile 96-well cell culture plate. After incubation at 37 °C in CO2 for 24 h, the cells were treated with different concentrations of sample compounds (100 µL) and doxorubicin as a positive control (100 µL). After incubation for 48 h, MTT solution (20 µL of 5 mg/mL) was added to each well and incubated for 3 h. After that, the complete medium was removed. Then, the cells were lysed with DMSO (100 µL). The yellow MTT dye was reduced by succinic dehydrogenase in the mitochondria of viable cells to purple formazan crystals. After that, absorbance (OD) was measured by a microplate reader at 570 nm. The percentage of cytotoxicity was determined with Equation (1) below. (1) Cell viability(%)=OD of treated cells/OD of control cells×100^

MRC-5 cells = assay: in vitro; assay type: cell-based, human
Protocol: as §1

human COX-2 = target: T1, human COX-2 (Homo sapiens, UniProt P35354); assay: Human COX-2 inhibitor screening assay kit (Cayman); assay type: biochemical; conditions: mean ± standard deviation of three replicates; read-out: COX-2 Inhibition IC50
T1 construct: purchased Cayman Chemicals USA Item no; 701080
T1 sequence (P35354 18-604): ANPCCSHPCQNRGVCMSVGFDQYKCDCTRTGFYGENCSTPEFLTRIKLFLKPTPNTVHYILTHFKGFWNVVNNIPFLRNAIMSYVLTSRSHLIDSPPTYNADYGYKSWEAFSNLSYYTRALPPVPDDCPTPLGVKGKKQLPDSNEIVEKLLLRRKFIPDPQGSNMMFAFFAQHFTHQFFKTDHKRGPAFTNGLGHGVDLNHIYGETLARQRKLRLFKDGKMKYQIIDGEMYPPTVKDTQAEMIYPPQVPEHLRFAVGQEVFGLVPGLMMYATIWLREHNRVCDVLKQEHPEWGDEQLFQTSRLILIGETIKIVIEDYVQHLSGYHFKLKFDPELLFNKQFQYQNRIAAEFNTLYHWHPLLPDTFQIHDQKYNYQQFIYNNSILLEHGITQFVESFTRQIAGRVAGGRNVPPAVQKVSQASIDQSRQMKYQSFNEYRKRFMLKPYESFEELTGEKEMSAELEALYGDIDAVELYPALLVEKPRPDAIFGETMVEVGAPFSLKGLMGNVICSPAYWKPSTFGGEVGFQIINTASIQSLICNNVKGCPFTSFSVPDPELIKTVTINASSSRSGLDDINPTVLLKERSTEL
Protocol: COX-2 enzyme and tested compounds at various concentrations were prepared in the reaction buffer (0.1 M Tris-HCl, pH 8.0, containing 5 mM EDTA and 2 mM phenol) containing heme. […] The quenched reactions were incubated at room temperature for 5 min to produce prostaglandin F2α. Dilutions were made with the ELISA buffer and measured by using a PGE2 ELISA kit according to the manufacturer’s instruction.

Structure (SMILES) | CC50 at 48 h (in vitro) | cytotoxicity to normal cell lines (in words) (MRC-5 cells) | IC50 (human COX-2) | melting point
CC(=O)Oc1cc(OC(C)=O)cc(C(F)C(F)c2ccc(OC(C)=O)cc2OC(C)=O)c1 (stereo not drawn) [Compound 9] | 11.7 ± 1.35 µM |  |  | 
Oc1cc(O)cc(CCc2ccc(O)cc2O)c1 [Compound 4, 2,3′,4,5′-tetrahydroxybibenzyl] | 106 ± 3.86 µM | very low cytotoxicity | 11.5 ± 1.54 µM | 
COc1cc(CCc2ccc(OC)cc2OC)cc(OC)c1 [Compound 5, 2,3′,4,5′-tetramethoxybibenzyl] | 130 ± 3.04 µM |  | 18.1 ± 2.07 µM | 44.7 to 46.8 °C
COc1cccc2c1C(=O)c1c(O)c3c(c(O)c1C2=O)C[C@@](O)(C(=O)CO)C[C@@H]3O[C@H]1C[C@H](N)[C@H](O)[C@H](C)O1 [doxorubicin, reference compound] | > 100 µM |  |  | 
Oc1cc(O)cc(/C=C/c2ccc(O)cc2O)c1 [Compound 1, trans-2,3′,4,5′-tetrahydroxystilbene] | 57.5 ± 2.34 µM |  | 14.5 ± 2.04 µM | 
CC(=O)Oc1cc(CCc2ccc(OC(C)=O)cc2OC(C)=O)cc(OC(C)=O)c1 [Compound 6, 2,3′,4,5′-tetraacetoxybibenzyl] | 121 ± 2.37 µM |  | 19 ± 2.01 µM | 72.3 to 73.3 °C
COc1cc(OC)cc(C(F)C(OC)c2ccc(OC)cc2OC)c1 (stereo not drawn) [Compound 8] | 53.04 ± 0.22 µM |  |  | 
COc1cc(C=Cc2ccc(OC)cc2OC)cc(OC)c1 [Compound 2, 2,3′,4,5′-tetramethoxystilbene] | 118 ± 2.69 µM |  | 25 ± 2.34 µM | 
CC(=O)Oc1cc(C=Cc2ccc(OC(C)=O)cc2OC(C)=O)cc(OC(C)=O)c1 [Compound 3, 2,3′,4,5′-tetraacetoxystilbene] | 77.7 ± 3.07 µM |  | 23 ± 2.02 µM | 
